For assay [1], the system named is JAK1/TYK2 pSTAT5 (Tyr694/699) in THP-1 cell line. In words: IFNa-stimulated JAK1/TYK2 pSTAT5 (Tyr694/699) inhibition cellular assay, AlphaLISA. Type of assay: cell-based. The note with it: THP-1 cells, IFNa-stimulated, AlphaLISA (Assay B), read-out: Cellular THP1_IFNa-pSTATS_IC50. In short, it runs like this: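 THP-1, 2e4 cells/well, HBSS; cpd 1 h 37 °C (10000–0.04 nM final, 6-fold, 8 pt); IFNa 100 ng/mL added, 30 min; lyse, freeze −80 °C; pSTAT5 AlphaLISA, 615 nm; 4PL IC50, bottom fixed 0, slope −1.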
(Bead proximity is the source of the signal in Alpha formats.)

In the next assay the target is T1, TYK2 JH2 (Homo sapiens, UniProt P29597).
T1 construct: purchased DiscoverX (KINOMEscan KdELECT service); host or cells: E. coli BL21-derived (T7 phage display) or HEK-293
T1 sequence (P29597 589-875 limits assumed): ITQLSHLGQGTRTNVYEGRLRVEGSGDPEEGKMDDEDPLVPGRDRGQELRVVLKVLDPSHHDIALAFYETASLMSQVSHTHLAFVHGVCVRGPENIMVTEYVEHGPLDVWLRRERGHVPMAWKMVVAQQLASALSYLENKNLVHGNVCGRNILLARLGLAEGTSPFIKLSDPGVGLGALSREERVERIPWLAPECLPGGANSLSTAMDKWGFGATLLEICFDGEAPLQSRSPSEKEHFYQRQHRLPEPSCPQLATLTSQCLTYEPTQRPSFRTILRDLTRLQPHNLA
Kind of assay: TYK2 JH2 binding assay (KINOMEscan KdELECT competitive binding). The note with it: TYK2 JH2 domain, KINOMEscan KdELECT (Assay A); read-out: Biochemical TYK2_JH2_Kd. In short, it runs like this:
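Kd values come from qPCR measurement of kinase retained on an immobilized-ligand resin after 1 h room-temperature competition with compound in an 11-point, 3-fold series.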

Read-outs that look alike come from different tables or passages of the source.

Regarding `CNc1ncc(-c2ncccc2OC)c2cc(Nc3ccccn3)ncc12` [Example 91, 4-(3-methoxypyridin-2-yl)-N^1-methyl-N^6-(pyridin-2-yl)-2,7-naphthyridine-1,6-diamine], the IC50 in assay [1] (Homo sapiens) was > 500 nM. The Kd at TYK2 JH2 fell in the range of 100 to 1000 nM.
Taken in the same sequence, the figures for `CNc1ncc(-c2ccccc2)c2cc(Nc3ccccn3)ncc12` [Example 92, N^1-methyl-4-phenyl-N^6-(pyridin-2-yl)-2,7-naphthyridine-1,6-diamine] were > 500 nM and ≤ 100 nM.
For `CNc1ncc(-c2ccccc2)c2cc(NCC3CC3)ncc12` [Example 93, N^6-(cyclopropylmethyl)-N^1-methyl-4-phenyl-2,7-naphthyridine-1,6-diamine] the same measures were > 500 nM and 1000 to 10000 nM.
Taken in the same sequence, the figures for `CNc1ncc(-c2ccccc2)c2cc(NCC(F)(F)F)ncc12` [Example 94, N^1-methyl-4-phenyl-N^6-(2,2,2-trifluoroethyl)-2,7-naphthyridine-1,6-diamine] were > 500 nM and 100 to 1000 nM.
For the compound `O=C(Nc1cc2c(-c3ccccc3)cnc(Cl)c2cn1)C1CC1` [Example 95, N-(8-chloro-5-phenyl-2,7-naphthyridin-3-yl)cyclopropanecarboxamide], the IC50 in assay [1] (Homo sapiens) was > 500 nM. Besides, the Kd at TYK2 JH2 is 100 to 1000 nM.
As for `CCc1ncc(-c2ccccc2)c2cc(NC(=O)C3CC3)ncc12` [Example 96, N-(8-ethyl-5-phenyl-2,7-naphthyridin-3-yl)cyclopropanecarboxamide], in assay [1] (Homo sapiens), the IC50 was > 500 nM. Moreover, the Kd on TYK2 JH2 was ≤ 100 nM.
For `CNc1ncc(-c2ccccc2)c2cc(NCc3ccc(OC)cc3)ncc12` [Example 98, N^6-(4-methoxybenzyl)-N^1-methyl-4-phenyl-2,7-naphthyridine-1,6-diamine] the same measures were > 500 nM and 1000 to 10000 nM.
For `CNc1ncc(-c2ccccc2)c2cc(NC(=O)C3(C)CC3)ncc12` [Example 101, 1-methyl-N-(8-(methylamino)-5-phenyl-2,7-naphthyridin-3-yl)cyclopropane-1-carboxamide] the same measures were > 500 nM and ≤ 100 nM.
For `CNc1ncc(-c2ccccc2)c2cc(NC(=O)C3CC3F)ncc12` (centres unmarked) [Example 103, 2-fluoro-N-(8-(methylamino)-5-phenyl-2,7-naphthyridin-3-yl)cyclopropane-1-carboxamide] the same measures were > 500 nM and ≤ 100 nM.
Regarding `CNc1ncc(-c2ccccc2)c2cc(NC(=O)C3CC3F)ncc12` (centres unmarked) [Example 104, 2-fluoro-N-(8-(methylamino)-5-phenyl-2,7-naphthyridin-3-yl)cyclopropane-1-carboxamide], the IC50 in assay [1] was > 500 nM. For the same compound, the Kd on TYK2 JH2 is ≤ 100 nM.
As for `CNc1ncc(-c2ccccc2)c2cc(NC(=O)C3CC3(F)F)ncc12` (centres unmarked) [Example 105, 2,2-difluoro-N-(8-(methylamino)-5-phenyl-2,7-naphthyridin-3-yl)cyclopropane-1-carboxamide], in assay [1] (Homo sapiens), the IC50 is > 500 nM. Moreover, on TYK2 JH2, the Kd is ≤ 100 nM.
For `CNc1ncc(-c2c[nH]c3ncccc23)c2cc(NC(=O)C3CC3)ncc12` [Example 106, N-(8-(methylamino)-5-(1H-pyrrolo[2,3-b]pyridin-3-yl)-2,7-naphthyridin-3-yl)cyclopropanecarboxamide] the same measures were > 500 nM and ≤ 100 nM.
For `CNc1ncc(-c2ccc3c(c2)OCCO3)c2cc(NC(=O)C3CC3)ncc12` [Example 108, N-(5-(2,3-dihydrobenzo[b][1,4]dioxin-6-yl)-8-(methylamino)-2,7-naphthyridin-3-yl)cyclopropanecarboxamide] the same measures were > 500 nM and ≤ 100 nM.
For `CNc1ncc(-c2ccc(C(F)(F)F)cc2)c2cc(NC(=O)C3CC3)ncc12` [Example 109, N-(8-(methylamino)-5-(4-(trifluoromethyl)phenyl)-2,7-naphthyridin-3-yl)cyclopropanecarboxamide] the same measures were > 500 nM and ≤ 100 nM.
On to `CNc1ncc(-c2ccc(OC(F)(F)F)cc2)c2cc(NC(=O)C3CC3)ncc12` [Example 110, N-(8-(methylamino)-5-(4-(trifluoromethoxy)phenyl)-2,7-naphthyridin-3-yl)cyclopropanecarboxamide], for which the IC50 in assay [1] (Homo sapiens) is > 500 nM. Besides, the Kd at TYK2 JH2 was ≤ 100 nM.
For `CNc1ncc(-c2ccc(OCC(F)(F)F)cc2)c2cc(NC(=O)C3CC3)ncc12` [Example 111, N-(8-(methylamino)-5-(4-(2,2,2-trifluoroethoxy)phenyl)-2,7-naphthyridin-3-yl)cyclopropanecarboxamide] the same measures were > 500 nM and ≤ 100 nM.
Regarding `CNc1ncc(-c2ccc(OC(F)F)cc2)c2cc(NC(=O)C3CC3)ncc12` [Example 112, N-(5-(4-(difluoromethoxy)phenyl)-8-(methylamino)-2,7-naphthyridin-3-yl)cyclopropanecarboxamide], in assay [1] (Homo sapiens), the IC50 is > 500 nM. The Kd on TYK2 JH2 was ≤ 100 nM.
Taken in the same sequence, the figures for `CNc1ncc(-c2ccc(C3CC3)cc2)c2cc(NC(=O)C3CC3)ncc12` [Example 113, N-(5-(4-cyclopropylphenyl)-8-(methylamino)-2,7-naphthyridin-3-yl)cyclopropanecarboxamide] were > 500 nM and ≤ 100 nM.
For `CNc1ncc(-c2cc3ccccc3o2)c2cc(NC(=O)C3CC3)ncc12` [Example 114, N-(5-(benzofuran-2-yl)-8-(methylamino)-2,7-naphthyridin-3-yl)cyclopropanecarboxamide] the same measures were ≤ 500 nM and ≤ 100 nM.
Taken in the same sequence, the figures for `CNc1ncc(-c2cnn(CCOC)c2)c2cc(NC(=O)C3CC3)ncc12` [Example 115, N-(5-(1-(2-methoxyethyl)-1H-pyrazol-4-yl)-8-(methylamino)-2,7-naphthyridin-3-yl)cyclopropanecarboxamide] were > 500 nM and ≤ 100 nM.
As to `CNc1ncc(-c2cccc(F)c2)c2cc(NC(=O)C3CC3)ncc12` [Example 116, N-(5-(3-fluorophenyl)-8-(methylamino)-2,7-naphthyridin-3-yl)cyclopropanecarboxamide], the IC50 in assay [1] (Homo sapiens) was > 500 nM. For the same compound, the Kd at TYK2 JH2 was ≤ 100 nM.
For `CNc1ncc(-c2ccc(OC3CC3)cc2)c2cc(NC(=O)C3CC3)ncc12` [Example 117, N-(5-(4-cyclopropoxyphenyl)-8-(methylamino)-2,7-naphthyridin-3-yl)cyclopropanecarboxamide] the same measures were > 500 nM and ≤ 100 nM.
Taken in the same sequence, the figures for `CNc1ncc(/C(C)=C/c2ccccc2)c2cc(NC(=O)C3CC3)ncc12` [Example 118, (E)-N-(8-(methylamino)-5-(1-phenylprop-1-en-2-yl)-2,7-naphthyridin-3-yl)cyclopropanecarboxamide] were ≤ 500 nM and ≤ 100 nM.
Regarding `CNc1ncc(-c2ccccc2COC)c2cc(NC(=O)C3CC3)ncc12` [Example 119, N-(5-(2-(methoxymethyl)phenyl)-8-(methylamino)-2,7-naphthyridin-3-yl)cyclopropanecarboxamide], in assay [1] (Homo sapiens), the IC50 was > 500 nM. Also, the Kd on TYK2 JH2 was ≤ 100 nM.
`CNc1ncc(C(=O)O)c2cc(NC(=O)C3CC3)ncc12` [Example 120, 6-(cyclopropanecarboxamido)-1-(methylamino)-2,7-naphthyridine-4-carboxylic acid]: the IC50 in assay [1] (Homo sapiens) is > 500 nM. Also, the Kd on TYK2 JH2 lay in the range of 100 to 1000 nM.

For the origin of these results see patent US20240025906A1 (NEURON23, INC., priority 2022, published 2024).
